In US20160160189A1, “Truncated Constructs of RIPK3 and Related Uses” (ST. JUDE CHILDREN'S RESEARCH HOSPITAL, priority 2013, published 2016):
Peptide text beside a SMILES is read from it. * marks the point of attachment. Cbz = O=C(OCc1ccccc1)*; CH2F = FC*

Columns and labels:
[1] = tested on: NIH-3T3 cells stably expressing RIPK3-1xFv; assay: AP1-induced RIPK3 dimerization cell death, IncuCyte imaging; assay type: cell-based, murine; conditions: for effect on AP1 (RIPK3 dimerization)-induced cell death: 30 nM AP1, zVAD 50 μM, Nec1 30 μM, TNFR-Fc 200 ng/ml, siRNA 72 h before
Text: Fv domains rapidly dimerize in response to AP1 treatment that facilitated an investigation of the protein-protein interactions involved in RIPK3 activation and necroptosis (27a). For example, an Fv domain was appended to a C-terminus of RIPK3, that is adjacent to the RHIM domain, in an effort to mimic in situ RHIM-dependent interactions that define RIPK3 activation. RIPK3-1xFv was expressed in NIH-3T3 cells, a cell line that lacks endogenous RIPK3 expression and is therefore unresponsive to TNF-induced necroptosis. See, FIGS. 13A and 13B. Cell death responses of NIH-3T3 cells were quantified by construct expression over time using the IncuCyte imaging system, which allows precise quantification of cell death with high temporal resolution. For example, representative images were acquired from an IncuCyte Imager (data not shown). These images were NIH-3T3 cells stably expressing RIPK3-1xFV, treated with 10 nM AP1 (see FIG. 1B for a quantified graphical representation of this cell death). One set of images show a field of these cells undergoing RIPK3-dependent cell death; the media contains the cell impermeable DNA binding dye Sytox Green, which marks cells that have lost membrane integrity in green. Another set of images depicts the same image set, following analysis by the IncuCyte software package. This software counts each green (dead) cell in each image; counted cells are surrounded by purple halos. Each trace shown in this manuscript depicts data averaged from at least 3 independently treated wells of cells, each of which is imaged in at least 4 separate fields. Each experiment shown is representative of at least 3 separate replicates. All experiments on stably transduced cells is representative of at least three separate replicates performed on each of at least two distinct, independently-derived stable lines.
In the examples below, the following compounds were used: Recombinant murine TNF (Peprotech 315-01A) was used at 1 ng/ml unless otherwise specified; AP1 (Now commercialized by Clontech as “B/B Homodimerizer,” catalog #635059) was dissolved in ethanol to a concentration of 100 μM, then diluted in culture media to a final concentration of 30 nM unless otherwise indicated. zVAD (SM 13 Biochemicals SMFMK001) was dissolved in DMSO to a concentration of 50 mM, then diluted to 50 μM in culture media; Necrostatin-1(Sigma N9037-10MG) was dissolved in DMSO to a concentration of 30 mM, then diluted to 30 μM in culture media; TNFR-Fc (Fisher 430-RI-050) was used at a final concentration of 200 ng/ml; Shield drug was a kind gift of Dr. Tom Wandless and was used at a final concentration of 1 μM. SiGenome SMARTpool siRNAs were purchased from Dharmacon/Fisher. Pools targeting murine MLKL(M-061420-01), murine RIPK1 (M-040150-01), and murine caspase-8 (M-043044-01), as well as a non-targeting “scramble” pool(D-001206-14), were used. Two microliters of a 50 μM stock of these siRNAs were delivered to cells in 6-well format using Lipofectamine siRNA-Max reagent (Life Technologies 13778150) according to the manufacturer's instructions. Forty-eight hours later, these cells were re-plated into 24-well format for cell death assays, or harvested for western blot analysis of knockdowns.
These constructs were transduced into NIH-3T3 cells using standard protocols for helper-dependent retroviral transduction. Transduced cells were selected for 5 days in 1 μg/ml puromycin, then grown to confluence and sorted twice for homogenous GFP expression. […]

[2] = tested on: RIPK3 necrosome complex (RIPK1, caspase-8); assay: Anti-FLAG immunoprecipitation of necrosome complexes; assay type: cell-based, murine; conditions: RIPK3-1xFv, AP1 30 minutes; zVAD 50 μM, Nec1 30 μM
Procedure: Immunoprecipitation of necrosome complexes were carried out using rabbit anti-FLAG antibodies, and TruBlot IP reagents (Rockland Immunochemicals) to eliminate non-specific signals from immunoglobulin heavy and light chains. Briefly, cell lines were treated as indicated and lysed in NP40 buffer (30 mM Tris, 150 mM NaCl, and 1% NP40) supplemented with protease inhibitors. Twenty micrograms of each sample were reserved for “input,” while 500 μg of total protein from each sample were immunoprecipitated with 0.5 μg antibody conjugated to 30 μL TruBlot anti-Rabbit IgG beads Immunocomplexes were washed 4 times in NP40 buffer, eluted by boiling, then run on western blot. Western blots were analyzed using standard primary antibodies, but TruBlot anti-Rabbit and anti-Mouse HRP-conjugated 14 secondary antibodies were used. A standard anti-Rat-HRP secondary was used to detect caspase-8.

[3] = tested on: Cells expressing RIPK3ΔC-FKBPx2; assay: Homodimerizer-induced truncated RIPK3 necrosis, PI uptake; assay type: cell-based; conditions: homodimerizer 1-100 nM, PI uptake at 3 hrs
Procedure: FIG. 6 provides a schematic for inducible RIPK-necrosis. Two systems for inducible RIPK-necrosis. […] Cell death in cells expressing RIPK1-FRB/RIPK3-FKBP and treated with heterodimerizer, and death was detected with annexin V-FITC. Death was inhibited by necrostatin-1 (not shown) (FIG. 6B). Cells expressing RIPK3ΔC-FKBPx2, treated with homodimerizer (1-100 nM); death was detected at 3 hrs by PI uptake. No effect of zVAD-fmk or necrostatin was observed (FIG. 6B).
An inducible dimer system has been employed to trigger homodimerization of caspase-8 in cells (27). The data provided herein support methods to induce RIPK-dependent necrosis by related approaches (FIG. 6A). Heterodimerization of RIPK1 and RIPK3 results in necrosis (see FIG. 6B) which is enhanced by inhibition of caspases and blocked by inhibition of RIPK1 (with nec1, data not shown). In contrast, truncated RIPK3 (lacking the RHIM domain for interaction with RIPK1) can only be oligomerized when FKBP domains (e.g., for example, two domains) that allow multiple monomers to be brought together by the dimerizing agent. Addition of the homodimerization agent to cells expressing this construct induces extremely rapid necrosis that that depends on the kinase activity of RIPK3, but is not affected by inhibition of caspases or nec1 treatment (FIG. 6C).

Row | SMILES | effect on AP1 (RIPK3 dimerization)-induced cell death [1] | effect on AP1 (RIPK3 dimerization)-induced cell death ([1]; listed as Nec1) | inhibitory effects of Nec1 on RIPK3 oligomerization upon knockdown of RIPK1 ([1]; RIPK1 siRNA, 30 nM AP1, 30 μM Nec1) | effect of inhibitor on association of RIPK1 and caspase-8 with the RIPK3 complex [2] | effect on homodimerizer-induced death [3] | effect on homodimerizer-induced death ([3]; listed as nec1)
1 | CN1C(=O)C(Cc2c[nH]c3ccccc23)NC1=S (stereo not drawn) [necrostatin-1, Necrostatin-1] | suppressed | blocked | abrogated | eliminated formation of stable RIPK1- and caspase-8 containing complexes | No effect | not affected
2 | COC(=O)C[C@H](NC(=O)[C@H](C)NC(=O)[C@@H](NC(=O)OCc1ccccc1)C(C)C)C(=O)CF [zVAD] (Cbz-Val-Ala-Asp(OMe)-CH2F) | notably increased the rate and magnitude of necroptosis |  |  | increased association of these proteins | No effect | 
